From patent US20230372302A1 (priority 2019, published 2023)
“Also recorded” adds a separate entry of the source. Where a name gives a salt, the structure may show the parent alone.

Tests used:
[1] = human, in vivo; cited from earlier work
rat = conditions: in vivo; cited from earlier work
[2] = system: vocal cords and respiratory muscles of rats; conditions: rat, in vivo
[3] = molecular target: T1, recombinant human VMAT2 transporters (Homo sapiens, UniProt Q05940); format: binding
T1 construct: expressed in transfected cells; host or cells: HEK-293
T1 sequence (Q05940 whole entry): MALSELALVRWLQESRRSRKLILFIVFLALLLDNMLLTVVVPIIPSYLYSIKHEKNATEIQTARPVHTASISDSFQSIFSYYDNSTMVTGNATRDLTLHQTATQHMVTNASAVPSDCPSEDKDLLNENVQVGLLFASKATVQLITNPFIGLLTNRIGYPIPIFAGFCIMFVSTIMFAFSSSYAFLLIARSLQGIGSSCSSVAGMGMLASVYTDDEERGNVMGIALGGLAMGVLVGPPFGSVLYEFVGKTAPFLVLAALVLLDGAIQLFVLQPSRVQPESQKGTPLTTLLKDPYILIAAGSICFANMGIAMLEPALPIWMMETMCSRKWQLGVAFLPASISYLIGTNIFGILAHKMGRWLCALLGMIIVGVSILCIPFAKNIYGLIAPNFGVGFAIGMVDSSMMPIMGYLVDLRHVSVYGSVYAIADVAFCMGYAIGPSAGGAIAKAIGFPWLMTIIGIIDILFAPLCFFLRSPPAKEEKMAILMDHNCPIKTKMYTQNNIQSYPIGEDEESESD

[4] = molecular target: vesicular monoamine transporter-VMAT (Homo sapiens, UniProt Q05940); assay: cell-based
vesicular monoamine transporter-VMAT, sequence (Q05940 whole entry): as above

[5] = system: T2, alpha 1 adrenergic receptor subtypes (1A, 1B, 1D); format: binding, human
T2 construct: rows headed: BA at all subtypes; other: subnanomolar range; Ki at alpha 1 adrenergic receptor subtypes; other: result in words

[6] = molecular target: T3, recombinant human alpha 1D adrenergic receptor (ADR1D) (Homo sapiens, UniProt P25100)
T3 sequence (P25100 1-572): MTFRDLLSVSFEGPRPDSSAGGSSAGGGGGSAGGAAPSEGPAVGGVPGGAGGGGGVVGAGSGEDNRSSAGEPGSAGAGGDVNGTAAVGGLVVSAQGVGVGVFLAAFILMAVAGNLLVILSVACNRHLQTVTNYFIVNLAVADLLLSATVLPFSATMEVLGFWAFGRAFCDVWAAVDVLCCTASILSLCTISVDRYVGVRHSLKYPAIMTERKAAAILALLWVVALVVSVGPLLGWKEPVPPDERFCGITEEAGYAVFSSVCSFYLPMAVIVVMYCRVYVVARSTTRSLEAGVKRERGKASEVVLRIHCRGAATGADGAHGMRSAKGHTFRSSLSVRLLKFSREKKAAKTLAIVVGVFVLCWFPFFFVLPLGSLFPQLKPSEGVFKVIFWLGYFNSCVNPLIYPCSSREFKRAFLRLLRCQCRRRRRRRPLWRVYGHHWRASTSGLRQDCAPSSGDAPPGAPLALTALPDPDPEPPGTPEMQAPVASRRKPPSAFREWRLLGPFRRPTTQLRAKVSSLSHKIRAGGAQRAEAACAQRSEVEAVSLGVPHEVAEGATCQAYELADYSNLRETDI

[7] = molecular target: recombinant human alpha 1A adrenergic receptor (ADR1A) (Homo sapiens, UniProt P35348); format: binding
[8] = molecular target: T4, recombinant human alpha 1B adrenergic receptor (ADR1B) (Homo sapiens, UniProt P35368)
T4 sequence (P35368 whole entry): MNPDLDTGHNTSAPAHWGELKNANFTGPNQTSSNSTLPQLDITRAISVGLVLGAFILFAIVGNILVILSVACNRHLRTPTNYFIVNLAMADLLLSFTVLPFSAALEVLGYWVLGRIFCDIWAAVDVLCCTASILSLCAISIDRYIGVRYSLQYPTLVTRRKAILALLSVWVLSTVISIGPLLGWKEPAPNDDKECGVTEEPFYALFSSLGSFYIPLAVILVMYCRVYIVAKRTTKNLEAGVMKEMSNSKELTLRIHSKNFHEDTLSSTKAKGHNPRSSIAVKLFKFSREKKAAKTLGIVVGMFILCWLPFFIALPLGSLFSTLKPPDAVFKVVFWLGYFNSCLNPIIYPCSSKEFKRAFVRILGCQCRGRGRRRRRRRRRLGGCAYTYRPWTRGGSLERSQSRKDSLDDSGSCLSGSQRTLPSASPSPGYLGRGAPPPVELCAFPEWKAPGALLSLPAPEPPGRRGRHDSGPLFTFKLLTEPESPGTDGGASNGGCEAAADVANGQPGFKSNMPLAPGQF

[9] = system: alpha 1 subtypes (1A, 1B, 1D); format: cell-based, human
[10] = system: VC and laryngeal muscles/laryngospasm; conditions: rat, in vivo; cited from earlier work
neuromuscular blockade = conditions: human, in vivo; cited from earlier work
[11] = molecular target: T5, α-1 adrenergic receptor 1A subtype (Homo sapiens, UniProt P35348); conditions: cited from earlier work
T5 sequence (P35348 1-466): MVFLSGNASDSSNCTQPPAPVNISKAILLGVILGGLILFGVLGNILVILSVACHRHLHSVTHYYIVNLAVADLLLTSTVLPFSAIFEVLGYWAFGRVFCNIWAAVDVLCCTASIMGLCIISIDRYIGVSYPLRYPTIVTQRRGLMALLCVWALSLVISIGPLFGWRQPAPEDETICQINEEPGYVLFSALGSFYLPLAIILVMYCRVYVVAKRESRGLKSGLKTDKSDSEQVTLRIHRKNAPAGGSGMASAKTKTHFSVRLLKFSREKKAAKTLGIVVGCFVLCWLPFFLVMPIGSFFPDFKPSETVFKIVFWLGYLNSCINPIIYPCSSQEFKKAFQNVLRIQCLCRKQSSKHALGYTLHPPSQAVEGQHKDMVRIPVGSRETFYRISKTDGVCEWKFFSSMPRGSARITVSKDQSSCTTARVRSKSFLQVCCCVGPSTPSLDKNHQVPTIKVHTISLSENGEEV

[12] = molecular target: T3, recombinant human alpha 1D adrenergic receptor (ADR1D); assay: biochemical
[13] = molecular target: T4, recombinant human alpha 1B adrenergic receptor (ADR1B); assay: biochemical

## C[C@H](Cc1cc2c(c(C(N)=O)c1)N(CCCO)CC2)NCCOc1ccccc1OCC(F)(F)F [SILODOSIN, (3-Hydroxypropyl)-5-[(2R)-2-({2-[2-(2,2,2trifluoroethoxy)phenoxy]ethyl}amino)propyl]-2,3-d hydro-1H-indole-7-carboxamide]
[1]
  dizziness and orthostatic hypotension: 3%
  subjects with syncope: 1/897

## COC(=O)[C@H]1[C@@H](OC(=O)c2ccccc2)C[C@@H]2CC[C@H]1N2C [cocaine]
rat
  LD85: 70 mg/kg
[2]
  vocal cord closure and chest wall rigidity effect (specific to F/FA): not demonstrated

## CC(=O)Oc1ccc2c3c1O[C@H]1[C@@H](OC(C)=O)C=C[C@H]4[C@@H](C2)N(C)CC[C@@]341 [heroin]
[2]
  vocal cord closure and chest wall rigidity effect (specific to F/FA): not demonstrated

## CN[C@@H](C)Cc1ccccc1 [methamphetamine]
[3]
  binding to VMAT2 transporter: bind to recombinant human VMAT2 transporters
rat
  LD90: 100 mg/kg
[2]
  vocal cord closure and chest wall rigidity effect (specific to F/FA): not demonstrated
[4]
  IC50: ~4 µM

## CN1CC[C@]23c4c5ccc(O)c4O[C@H]2[C@@H](O)C=C[C@H]3[C@H]1C5 [morphine]
[5]
  binding at alpha 1 adrenergic receptor subtypes: not morphine; also recorded: neither morphine (MSO4) or naloxone had any notable or relevant binding activity
[6]
  binding at alpha 1D (bind all alpha 1 subtypes): not morphine or naloxone bind
[7]
  binding at alpha 1A (bind all alpha 1 subtypes): not morphine or naloxone bind
[8]
  binding at alpha 1B (bind all alpha 1 subtypes): not morphine or naloxone bind
[9]
  act as antagonists at all alpha 1 subtypes: not morphine

## C=CCN1CC[C@]23c4c5ccc(O)c4O[C@H]2C(=O)CC[C@@]3(O)[C@H]1C5.Cl [naloxone, 17-Allyl-4,5α-epoxy-3,14-dihydroxymorphinan-6-one hydrochloride]
[5]
  binding at alpha 1 adrenergic receptor subtypes: neither morphine (MSO4) or naloxone had any notable or relevant binding activity
[10]
  impact on the effects of F on VC and laryngeal muscles/laryngospasm: minimal impact

## NC[C@H](O)c1ccc(O)c(O)c1 [norepinephrine]
[6]
  binding at the 1D subtype over 1A and 1B receptor subtypes, respectively: 9-20 fold

## C=CC[N+]1([C@H]2C[C@H]3[C@@H]4CC[C@H]5C[C@H](O)[C@@H](N6CCOCC6)C[C@]5(C)[C@H]4CC[C@]3(C)[C@H]2OC(C)=O)CCCC1 [rocuronium bromide, 1-[17β-(acetyloxy)-3α-hydroxy-2β-(4-morpholinyl)-5α-androstan-16β-yl]-1-(2-propenyl)pyrrolidinium bromide]
Neuromuscular blockade
  time to completed intubation in most patients: ≤ 2 min
  time to excellent or good intubating conditions in most patients: less than 2 minutes
  time to maximum blockade in most patients: less than 3 minutes
  time to neuromuscular block sufficient for intubation (80% block or greater), median (range): 1 (0.4-6) minute(s)

## C[N+](C)(C)CCOC(=O)CCC(=O)OCC[N+](C)(C)C [succinylcholine]
Neuromuscular blockade
  onset of effect given intramuscularly: 2 to 3 min
  persistence of maximum blockade: about 2 minutes
  recovery time after maximum blockade: 4 to 6 min
  time until neuromuscular blockade develops: about 1 minute

## CCOc1ccccc1OCCN[C@H](C)Cc1ccc(OC)c(S(N)(=O)=O)c1 [tamsulosin, (−)-(R)-5-[2-[[2-(o-Ethoxyphenoxy)ethyl]amino]propyl]-2-methoxybenzenesulfon-amide, monohydrochloride]
[11]
  binding affinity at the 1A subtype greater over other α-1 antagonists: 12-30 times
[12]
  Ki: < 0.001 µM
[13]
  Ki: < 0.001 µM
